According to US20130096156A1 (priority 2010, published 2013):

Legend:
Phytophthora infestans = experiment: whole plant or invertebrate; type: in vivo; settings: in Solanum lycopersicum, foliar, read-out: inhibit fungal infestation (percent disease control compared to untreated)
Plasmopara viticola = Plasmopara viticola / grape / leaf disc preventative; type: in vivo; settings: foliar, grape vine leaf disks, inoculated 1 day after application, assessed 6-8 days after application, read-out: inhibit fungal infestation (percent disease control compared to untreated)
Description: (§1) Leaf disks of various plant species (diameter 14 mm) are cut from plants grown in the greenhouse. The cut leaf disks are placed in multiwell plates (24-well format) onto water agar. Immediately after cutting the leaf disks are sprayed with a test solution.
(§2) Compounds to be tested are prepared as DMSO solutions (max. 10 mg/ml). Just before spraying the solutions are diluted to the appropriate concentrations with 0.025% Tween20. After drying, the leaf disks are inoculated with a spore suspension of the appropriate pathogenic fungus.
(§3) After an incubation time of 3-7 days after inoculation at defined conditions (temp, rH, light, etc.) according to the respective test system, the activity of the test compound is assessed as antifungal activity.
Grape vine leaf disks are placed on water agar in multiwell plates (24-well format) and sprayed with the formulated test compound diluted in water. The leaf disks are inoculated with a spore suspension of the fungus 1 day after application. The inoculated leaf disks are incubated at 19° C. and 80% rh under a light regime of 12 h light/12 h darkness in a climate cabinet and the activity of a compound is assessed as percent disease control compared to untreated when an appropriate level of disease damage appears in untreated check leaf disks (6-8 days after application).

Pythium ultimum = Pythium ultimum / liquid culture (seedling damping off); type: cell-based; settings: Globisporangium ultimum, liquid culture in PDB, 24° C., 2-3 days after application, read-out: inhibit fungal infestation (inhibition of growth determined photometrically)
Description: Mycelia fragments or conidia suspensions of a fungus, prepared either freshly from liquid cultures of the fungus or from cryogenic storage, are directly mixed into nutrient broth. DMSO solutions of the test compound (max. 10 mg/ml) is diluted with 0.025% Tween20 by factor 50 and 10 μl of this solution is pipetted into a microtiter plate (96-well format) and the nutrient broth containing the fungal spores/mycelia fragments is then added to give an end concentration of the tested compound. The test plates are incubated at 24° C. and 96% rH in the dark. The inhibition of fungal growth is determined photometrically after 2-6 days and antifungal activity is calculated.
Mycelia fragments and oospores of a newly grown liquid culture of the fungus are directly mixed into nutrient broth (PDB potato dextrose broth). After placing a (DMSO) solution of test compound into a microtiter plate (96-well format), the nutrient broth containing the fungal mycelia/spore mixture is added. The test plates are incubated at 24° C. and the inhibition of growth is determined photometrically 2-3 days after application.

[1] = tested on: Blumeria graminis f. sp. tritici (Erysiphe graminis f. sp. tritici); experiment: Blumeria graminis f. sp. tritici / wheat / leaf disc preventative (powdery mildew on wheat); type: in vivo; settings: foliar, wheat leaf segments cv. Kanzler, inoculated 1 day after application, assessed 6-8 days after application, read-out: inhibit fungal infestation (percent disease control compared to untreated)
Description: as §1, §2, §3
Wheat leaf segments cv. Kanzler are placed on agar in a multiwell plate (24-well format) and sprayed with the formulated test compound diluted in water. The leaf disks are inoculated by shaking powdery mildew infected plants above the test plates 1 day after application. The inoculated leaf disks are incubated at 20° C. and 60% rh under a light regime of 24 h darkness followed by 12 h light/12 h darkness in a climate chamber and the activity of a compound is assessed as percent disease control compared to untreated when an appropriate level of disease damage appears on untreated check leaf segments (6-8 days after application).

[2] = tested on: Phaeosphaeria nodorum (Septoria nodorum); experiment: Phaeosphaeria nodorum (Septoria nodorum) / wheat / leaf disc preventative (glume blotch); type: in vivo; settings: Parastagonospora nodorum, foliar, wheat leaf segments cv. Kanzler, inoculated 2 days after application, assessed 5-7 days after application, read-out: inhibit fungal infestation (percent disease control compared to untreated)
Description: as §1, §2, §3
Wheat leaf segments cv. Kanzler are placed on agar in a multiwell plate (24-well format) and sprayed with the formulated test compound diluted in water. The leaf disks are inoculated with a spore suspension of the fungus 2 days after application. The inoculated test leaf disks are incubated at 20° C. and 75% rh under a light regime of 12 h light/12 h darkness in a climate cabinet and the activity of a compound is assessed as percent disease control compared to untreated when an appropriate level of disease damage appears in untreated check leaf disks (5-7 days after application).

## CCc1cnc2c(Cl)cc(OC(SC)C(=O)NC(C)(C)/C=N/OC)cc2c1 (centres unmarked) [Compound 24, 2-(8-Chloro-3-ethyl-quinolin-6-yloxy)-N-(2-methoxyimino-1,1-dimethyl-ethyl)-2-methylsulfanyl-acetamide]
Phytophthora infestans
  inhibition at 200 ppm: ≥ 80%
other
  melting point: 142 to 144 °C
Plasmopara viticola
  inhibition at 200 ppm: ≥ 80%
Pythium ultimum
  inhibition at 200 ppm: ≥ 80%
[1]
  inhibition at 200 ppm: ≥ 80%

## CSC(Oc1cc(C)c2ncc(C)cc2c1)C(=O)NC(C)(C)C (centres unmarked) [Compound 6, N-tert-Butyl-2-(3,8-dimethyl-quinolin-6-yloxy)-2-methylsulfanyl-acetamide]
Phytophthora infestans
  inhibition at 200 ppm: ≥ 80%
other
  melting point: 126 to 127 °C
Plasmopara viticola
  inhibition at 200 ppm: ≥ 80%
Pythium ultimum
  inhibition at 200 ppm: ≥ 80%
[1]
  inhibition at 200 ppm: ≥ 80%

## CCc1cnc2c(C)cc(OC(SC)C(=O)NC(C)(C)/C=N/OC)cc2c1 (centres unmarked) [Compound 16, 2-(3-Ethyl-8-methyl-quinolin-6-yloxy)-N-(2-methoxyimino-1,1-dimethyl-ethyl)-2-methylsulfanyl-acetamide]
[2]
  inhibition at 200 ppm: ≥ 80%
Phytophthora infestans
  inhibition at 200 ppm: ≥ 80%
other
  melting point: 105 to 106 °C
Plasmopara viticola
  inhibition at 200 ppm: ≥ 80%
Pythium ultimum
  inhibition at 200 ppm: ≥ 80%
[1]
  inhibition at 200 ppm: ≥ 80%

## CO/N=C/C(C)(C)NC(=O)C(Oc1ccc2ncc(C)cc2c1)SC (centres unmarked) [Compound 12, N-(2-Methoxyimino-1,1-dimethyl-ethyl)-2-(3-methyl-quinolin-6-yloxy)-2-methylsulfanyl-acetamide]
Phytophthora infestans
  inhibition at 200 ppm: ≥ 80%
other
  melting point: 130 to 132 °C
Plasmopara viticola
  inhibition at 200 ppm: ≥ 80%
Pythium ultimum
  inhibition at 200 ppm: ≥ 80%
[1]
  inhibition at 200 ppm: ≥ 80%

## C#CC(C)(C)NC(=O)C(Oc1ccc2ncc(C)cc2c1)SC (centres unmarked) [Compound 2, N-(1,1-Dimethyl-prop-2-ynyl)-2-(3-methyl-quinolin-6-yloxy)-2-methylsulfanyl-acetamide]
Phytophthora infestans
  inhibition at 200 ppm: ≥ 80%
other
  melting point: 132 to 134 °C
Plasmopara viticola
  inhibition at 200 ppm: ≥ 80%
Pythium ultimum
  inhibition at 200 ppm: ≥ 80%
[1]
  inhibition at 200 ppm: ≥ 80%

## C#CC(C)(COC)NC(=O)C(Oc1cc(C)c2ncc(C)cc2c1)SC (centres unmarked) [Compound 10, 2-(3,8-Dimethyl-quinolin-6-yloxy)-N-(1-methoxymethyl-1-methyl-prop-2-ynyl)-2-methylsulfanyl-acetamide]
[2]
  inhibition at 200 ppm: ≥ 80%
Phytophthora infestans
  inhibition at 200 ppm: ≥ 80%
other
  melting point: 119 to 120 °C
Pythium ultimum
  inhibition at 200 ppm: ≥ 80%
[1]
  inhibition at 200 ppm: ≥ 80%

## C#CC(C)(C)NC(=O)C(Oc1cc(Cl)c2ncc(CC)cc2c1)SC (centres unmarked) [Compound 25, 2-(8-Chloro-3-ethyl-quinolin-6-yloxy)-N-(1,1-dimethyl-prop-2-ynyl)-2-methylsulfanyl-acetamide]
[2]
  inhibition at 200 ppm: ≥ 80%
Phytophthora infestans
  inhibition at 200 ppm: ≥ 80%
other
  melting point: 149 to 151 °C
Plasmopara viticola
  inhibition at 200 ppm: ≥ 80%

## CC#CC(C)(C)NC(=O)C(Oc1ccc2ncc(C)cc2c1)SC (centres unmarked) [Compound 3, N-(1,1-Dimethyl-but-2-ynyl)-2-(3-methyl-quinolin-6-yloxy)-2-methylsulfanyl-acetamide]
Phytophthora infestans
  inhibition at 200 ppm: ≥ 80%
other
  melting point: 128 to 129 °C
Plasmopara viticola
  inhibition at 200 ppm: ≥ 80%
Pythium ultimum
  inhibition at 200 ppm: ≥ 80%
[1]
  inhibition at 200 ppm: ≥ 80%

## CSC(Oc1cc(C)c2ncc(C)cc2c1)C(=O)NC1(C)CCC1 (centres unmarked) [Compound 9, 2-(3,8-Dimethyl-quinolin-6-yloxy)-N-(1-methyl-cyclobutyl)-2-methylsulfanyl-acetamide]
Phytophthora infestans
  inhibition at 200 ppm: ≥ 80%
other
  melting point: 150 to 151 °C
Plasmopara viticola
  inhibition at 200 ppm: ≥ 80%
Pythium ultimum
  inhibition at 200 ppm: ≥ 80%
[1]
  inhibition at 200 ppm: ≥ 80%

## CC#CC(C)(C)NC(=O)C(Oc1ccc2ncc(CC)cc2c1)SC (centres unmarked) [Compound 13, N-(1,1-Dimethyl-but-2-ynyl)-2-(3-ethyl-quinolin-6-yloxy)-2-methylsulfanyl-acetamide]
Phytophthora infestans
  inhibition at 200 ppm: ≥ 80%
other
  melting point: 133 to 134 °C
Plasmopara viticola
  inhibition at 200 ppm: ≥ 80%
Pythium ultimum
  inhibition at 200 ppm: ≥ 80%
[1]
  inhibition at 200 ppm: ≥ 80%
